# Assay results reported in PubChem BioAssay (NCI).
#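 Cultured in 96-well plates, cells were exposed to test compound for 48 hours across five concentrations. GI50 = concentration required for 50% inhibition of growth. At the TGI there is no net growth.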
# System: BT-549 breast
# Test: NCI tumour cell line growth inhibition, 48 h
Compound,GI50 [µM],TGI [µM]
COc1cc(/C=N\NC(=O)CN2CCN(c3cc4c(cc3F)c(=O)c(C(=O)N/N=C/c3cc(OC)c(OC)c(OC)c3)cn4C3CC3)CC2)cc(OC)c1OC,0.199,0.461
Cc1ccc(CN2CCC(C(=O)Nc3ccc(-c4cc5ccccc5[nH]4)cc3)CC2)o1,> 100,> 100
C=CC(=O)Nc1cc(Nc2ncc(C(=O)OC(C)C)c(-c3cn(C)c4ccccc34)n2)c(OC)cc1N(C)CCN(C)C,7.41,21.4
O=C(Nc1ccc(F)cc1)Nc1ccc(Cl)c([N+](=O)[O-])c1,2.9,10.8
CCOC(=O)Cn1c(C(F)(F)F)nc2nc(Cl)c(Cl)nc21,–,> 100
CC1CCc2nc[nH]c(=O)c21 (centres undefined),> 100,> 100
Fc1[nH]nc2ccc([C@@H]3Nc4ccc5[nH]ncc5c4[C@H]4C5CCC(C5)[C@@H]34)cc12 (some centres undefined),1.77,17.8
Nc1ccccc1C#C/C=C\C#Cc1ccccc1OC(F)(F)F,5.78,22.5
Cc1ccc(NC(=O)Nc2ccc(-c3cccnc3)cc2N2CCC(CO)CC2)cc1,1.96,9.2
Cc1cnc(NCCCN(C)C)c2c1[nH]c1ccc3cc(O)ccc3c12,–,3.12

# System: DU-145 prostate
# Test: NCI tumour cell line growth inhibition, 48 h
Compound,GI50 [µM],TGI [µM]
COc1cc(/C=N\NC(=O)CN2CCN(c3cc4c(cc3F)c(=O)c(C(=O)N/N=C/c3cc(OC)c(OC)c(OC)c3)cn4C3CC3)CC2)cc(OC)c1OC,0.495,> 20
Cc1ccc(CN2CCC(C(=O)Nc3ccc(-c4cc5ccccc5[nH]4)cc3)CC2)o1,> 100,> 100
C=CC(=O)Nc1cc(Nc2ncc(C(=O)OC(C)C)c(-c3cn(C)c4ccccc34)n2)c(OC)cc1N(C)CCN(C)C,1.19,17.6
O=C(Nc1ccc(F)cc1)Nc1ccc(Cl)c([N+](=O)[O-])c1,4.44,21.2
CCOC(=O)Cn1c(C(F)(F)F)nc2nc(Cl)c(Cl)nc21,–,13.9
CC1CCc2nc[nH]c(=O)c21 (centres undefined),> 100,> 100
Fc1[nH]nc2ccc([C@@H]3Nc4ccc5[nH]ncc5c4[C@H]4C5CCC(C5)[C@@H]34)cc12 (some centres undefined),3.22,14.9
Nc1ccccc1C#C/C=C\C#Cc1ccccc1OC(F)(F)F,4.81,29.9
Cc1ccc(NC(=O)Nc2ccc(-c3cccnc3)cc2N2CCC(CO)CC2)cc1,3.78,> 100
Cc1cnc(NCCCN(C)C)c2c1[nH]c1ccc3cc(O)ccc3c12,–,4.03

# System: M14 melanoma
# Test: NCI tumour cell line growth inhibition, 48 h
Compound,GI50 [µM],TGI [µM]
COc1cc(/C=N\NC(=O)CN2CCN(c3cc4c(cc3F)c(=O)c(C(=O)N/N=C/c3cc(OC)c(OC)c(OC)c3)cn4C3CC3)CC2)cc(OC)c1OC,0.429,> 49.5
Cc1ccc(CN2CCC(C(=O)Nc3ccc(-c4cc5ccccc5[nH]4)cc3)CC2)o1,66.1,> 100
C=CC(=O)Nc1cc(Nc2ncc(C(=O)OC(C)C)c(-c3cn(C)c4ccccc34)n2)c(OC)cc1N(C)CCN(C)C,1.87,3.74
O=C(Nc1ccc(F)cc1)Nc1ccc(Cl)c([N+](=O)[O-])c1,3.14,12.3
CCOC(=O)Cn1c(C(F)(F)F)nc2nc(Cl)c(Cl)nc21,–,> 100
CC1CCc2nc[nH]c(=O)c21 (centres undefined),> 100,> 100
Fc1[nH]nc2ccc([C@@H]3Nc4ccc5[nH]ncc5c4[C@H]4C5CCC(C5)[C@@H]34)cc12 (some centres undefined),0.514,11.7
Nc1ccccc1C#C/C=C\C#Cc1ccccc1OC(F)(F)F,3.86,17.8
Cc1ccc(NC(=O)Nc2ccc(-c3cccnc3)cc2N2CCC(CO)CC2)cc1,2.95,13.9
Cc1cnc(NCCCN(C)C)c2c1[nH]c1ccc3cc(O)ccc3c12,–,2.55

# System: NCI-H226 lung
# Test: NCI tumour cell line growth inhibition, 48 h
Compound,GI50 [µM],TGI [µM]
COc1cc(/C=N\NC(=O)CN2CCN(c3cc4c(cc3F)c(=O)c(C(=O)N/N=C/c3cc(OC)c(OC)c(OC)c3)cn4C3CC3)CC2)cc(OC)c1OC,0.34,1.2
Cc1ccc(CN2CCC(C(=O)Nc3ccc(-c4cc5ccccc5[nH]4)cc3)CC2)o1,> 100,> 100
C=CC(=O)Nc1cc(Nc2ncc(C(=O)OC(C)C)c(-c3cn(C)c4ccccc34)n2)c(OC)cc1N(C)CCN(C)C,7.45,29.5
O=C(Nc1ccc(F)cc1)Nc1ccc(Cl)c([N+](=O)[O-])c1,2.28,9.3
CCOC(=O)Cn1c(C(F)(F)F)nc2nc(Cl)c(Cl)nc21,–,> 100
CC1CCc2nc[nH]c(=O)c21 (centres undefined),> 100,> 100
Fc1[nH]nc2ccc([C@@H]3Nc4ccc5[nH]ncc5c4[C@H]4C5CCC(C5)[C@@H]34)cc12 (some centres undefined),3.54,25.9
Nc1ccccc1C#C/C=C\C#Cc1ccccc1OC(F)(F)F,14,40.3
Cc1ccc(NC(=O)Nc2ccc(-c3cccnc3)cc2N2CCC(CO)CC2)cc1,6.31,> 100
Cc1cnc(NCCCN(C)C)c2c1[nH]c1ccc3cc(O)ccc3c12,–,1.73

# System: NCI-H460 lung
# Test: NCI tumour cell line growth inhibition, 48 h
Compound,GI50 [µM],TGI [µM]
COc1cc(/C=N\NC(=O)CN2CCN(c3cc4c(cc3F)c(=O)c(C(=O)N/N=C/c3cc(OC)c(OC)c(OC)c3)cn4C3CC3)CC2)cc(OC)c1OC,0.251,0.636
Cc1ccc(CN2CCC(C(=O)Nc3ccc(-c4cc5ccccc5[nH]4)cc3)CC2)o1,> 100,> 100
C=CC(=O)Nc1cc(Nc2ncc(C(=O)OC(C)C)c(-c3cn(C)c4ccccc34)n2)c(OC)cc1N(C)CCN(C)C,6.57,14.8
O=C(Nc1ccc(F)cc1)Nc1ccc(Cl)c([N+](=O)[O-])c1,2.72,11.5
CCOC(=O)Cn1c(C(F)(F)F)nc2nc(Cl)c(Cl)nc21,–,> 100
CC1CCc2nc[nH]c(=O)c21 (centres undefined),> 100,> 100
Fc1[nH]nc2ccc([C@@H]3Nc4ccc5[nH]ncc5c4[C@H]4C5CCC(C5)[C@@H]34)cc12 (some centres undefined),0.804,7.26
Nc1ccccc1C#C/C=C\C#Cc1ccccc1OC(F)(F)F,3.78,17.3
Cc1ccc(NC(=O)Nc2ccc(-c3cccnc3)cc2N2CCC(CO)CC2)cc1,3.19,> 100
Cc1cnc(NCCCN(C)C)c2c1[nH]c1ccc3cc(O)ccc3c12,–,1.25

# System: OVCAR-8 ovarian
# Test: NCI tumour cell line growth inhibition, 48 h
Compound,GI50 [µM],TGI [µM]
COc1cc(/C=N\NC(=O)CN2CCN(c3cc4c(cc3F)c(=O)c(C(=O)N/N=C/c3cc(OC)c(OC)c(OC)c3)cn4C3CC3)CC2)cc(OC)c1OC,0.577,> 88.5
Cc1ccc(CN2CCC(C(=O)Nc3ccc(-c4cc5ccccc5[nH]4)cc3)CC2)o1,> 100,> 100
C=CC(=O)Nc1cc(Nc2ncc(C(=O)OC(C)C)c(-c3cn(C)c4ccccc34)n2)c(OC)cc1N(C)CCN(C)C,4.85,25
O=C(Nc1ccc(F)cc1)Nc1ccc(Cl)c([N+](=O)[O-])c1,2.98,15.1
CCOC(=O)Cn1c(C(F)(F)F)nc2nc(Cl)c(Cl)nc21,–,> 100
CC1CCc2nc[nH]c(=O)c21 (centres undefined),> 100,> 100
Fc1[nH]nc2ccc([C@@H]3Nc4ccc5[nH]ncc5c4[C@H]4C5CCC(C5)[C@@H]34)cc12 (some centres undefined),2.46,16.4
Nc1ccccc1C#C/C=C\C#Cc1ccccc1OC(F)(F)F,6.7,47.2
Cc1ccc(NC(=O)Nc2ccc(-c3cccnc3)cc2N2CCC(CO)CC2)cc1,6.43,> 100
Cc1cnc(NCCCN(C)C)c2c1[nH]c1ccc3cc(O)ccc3c12,–,1.96

# System: RPMI-8226 leukemia
# Test: NCI tumour cell line growth inhibition, 48 h
Compound,GI50 [µM],TGI [µM]
COc1cc(/C=N\NC(=O)CN2CCN(c3cc4c(cc3F)c(=O)c(C(=O)N/N=C/c3cc(OC)c(OC)c(OC)c3)cn4C3CC3)CC2)cc(OC)c1OC,0.299,–
Cc1ccc(CN2CCC(C(=O)Nc3ccc(-c4cc5ccccc5[nH]4)cc3)CC2)o1,> 100,> 100
C=CC(=O)Nc1cc(Nc2ncc(C(=O)OC(C)C)c(-c3cn(C)c4ccccc34)n2)c(OC)cc1N(C)CCN(C)C,2.86,14.6
O=C(Nc1ccc(F)cc1)Nc1ccc(Cl)c([N+](=O)[O-])c1,1.89,8.58
CCOC(=O)Cn1c(C(F)(F)F)nc2nc(Cl)c(Cl)nc21,–,26.7
CC1CCc2nc[nH]c(=O)c21 (centres undefined),> 100,> 100
Fc1[nH]nc2ccc([C@@H]3Nc4ccc5[nH]ncc5c4[C@H]4C5CCC(C5)[C@@H]34)cc12 (some centres undefined),1.42,16.7
Nc1ccccc1C#C/C=C\C#Cc1ccccc1OC(F)(F)F,3.55,18
Cc1ccc(NC(=O)Nc2ccc(-c3cccnc3)cc2N2CCC(CO)CC2)cc1,3.02,14.3
Cc1cnc(NCCCN(C)C)c2c1[nH]c1ccc3cc(O)ccc3c12,–,10.1

# System: SK-OV-3 ovarian
# Test: NCI tumour cell line growth inhibition, 48 h
Compound,GI50 [µM],TGI [µM]
COc1cc(/C=N\NC(=O)CN2CCN(c3cc4c(cc3F)c(=O)c(C(=O)N/N=C/c3cc(OC)c(OC)c(OC)c3)cn4C3CC3)CC2)cc(OC)c1OC,0.718,> 53.1
Cc1ccc(CN2CCC(C(=O)Nc3ccc(-c4cc5ccccc5[nH]4)cc3)CC2)o1,> 100,> 100
C=CC(=O)Nc1cc(Nc2ncc(C(=O)OC(C)C)c(-c3cn(C)c4ccccc34)n2)c(OC)cc1N(C)CCN(C)C,< 0.01,16.7
O=C(Nc1ccc(F)cc1)Nc1ccc(Cl)c([N+](=O)[O-])c1,2.62,7.52
CCOC(=O)Cn1c(C(F)(F)F)nc2nc(Cl)c(Cl)nc21,–,> 100
CC1CCc2nc[nH]c(=O)c21 (centres undefined),> 100,> 100
Fc1[nH]nc2ccc([C@@H]3Nc4ccc5[nH]ncc5c4[C@H]4C5CCC(C5)[C@@H]34)cc12 (some centres undefined),1.88,16.5
Nc1ccccc1C#C/C=C\C#Cc1ccccc1OC(F)(F)F,7.12,67.7
Cc1ccc(NC(=O)Nc2ccc(-c3cccnc3)cc2N2CCC(CO)CC2)cc1,3.93,> 100
Cc1cnc(NCCCN(C)C)c2c1[nH]c1ccc3cc(O)ccc3c12,–,2.75

# System: SN12C renal
# Test: NCI tumour cell line growth inhibition, 48 h
Compound,GI50 [µM],TGI [µM]
COc1cc(/C=N\NC(=O)CN2CCN(c3cc4c(cc3F)c(=O)c(C(=O)N/N=C/c3cc(OC)c(OC)c(OC)c3)cn4C3CC3)CC2)cc(OC)c1OC,0.225,0.601
Cc1ccc(CN2CCC(C(=O)Nc3ccc(-c4cc5ccccc5[nH]4)cc3)CC2)o1,> 100,> 100
C=CC(=O)Nc1cc(Nc2ncc(C(=O)OC(C)C)c(-c3cn(C)c4ccccc34)n2)c(OC)cc1N(C)CCN(C)C,3.02,15.4
O=C(Nc1ccc(F)cc1)Nc1ccc(Cl)c([N+](=O)[O-])c1,2.95,11.7
CCOC(=O)Cn1c(C(F)(F)F)nc2nc(Cl)c(Cl)nc21,–,> 100
CC1CCc2nc[nH]c(=O)c21 (centres undefined),> 100,> 100
Fc1[nH]nc2ccc([C@@H]3Nc4ccc5[nH]ncc5c4[C@H]4C5CCC(C5)[C@@H]34)cc12 (some centres undefined),1.99,18.1
Nc1ccccc1C#C/C=C\C#Cc1ccccc1OC(F)(F)F,9.85,26.8
Cc1ccc(NC(=O)Nc2ccc(-c3cccnc3)cc2N2CCC(CO)CC2)cc1,4.49,> 100
Cc1cnc(NCCCN(C)C)c2c1[nH]c1ccc3cc(O)ccc3c12,–,1.78

# System: SW-620 colon
# Test: NCI tumour cell line growth inhibition, 48 h
Compound,GI50 [µM],TGI [µM]
COc1cc(/C=N\NC(=O)CN2CCN(c3cc4c(cc3F)c(=O)c(C(=O)N/N=C/c3cc(OC)c(OC)c(OC)c3)cn4C3CC3)CC2)cc(OC)c1OC,0.328,> 100
Cc1ccc(CN2CCC(C(=O)Nc3ccc(-c4cc5ccccc5[nH]4)cc3)CC2)o1,> 100,> 100
C=CC(=O)Nc1cc(Nc2ncc(C(=O)OC(C)C)c(-c3cn(C)c4ccccc34)n2)c(OC)cc1N(C)CCN(C)C,3.25,8.88
O=C(Nc1ccc(F)cc1)Nc1ccc(Cl)c([N+](=O)[O-])c1,3.45,13.9
CCOC(=O)Cn1c(C(F)(F)F)nc2nc(Cl)c(Cl)nc21,–,> 100
CC1CCc2nc[nH]c(=O)c21 (centres undefined),> 100,> 100
Fc1[nH]nc2ccc([C@@H]3Nc4ccc5[nH]ncc5c4[C@H]4C5CCC(C5)[C@@H]34)cc12 (some centres undefined),0.472,17.3
Nc1ccccc1C#C/C=C\C#Cc1ccccc1OC(F)(F)F,3.96,16
Cc1ccc(NC(=O)Nc2ccc(-c3cccnc3)cc2N2CCC(CO)CC2)cc1,2.52,> 100
Cc1cnc(NCCCN(C)C)c2c1[nH]c1ccc3cc(O)ccc3c12,–,1.97
